Common to all, as to type: cell-based, human
The subject of one experiment is STING. Description: STING pathway activation / CXCL10 ELISA in MPM cell lines. The settings on record: multiple MPM cell lines treated in vitro. The protocol: (§1) Cytokine analysis. CXCL10 ELISA (R&D Systems DIP100) and granzyme B ELISA (R&D systems DY008) were performed according to manufacturer's instructions on conditioned media collected from cell culture. Cytokine analysis of conditioned media after 3 days of explant (S1) culture (FIG. 9B) utilized the MSD U-PLEX Viral Combo 1 assay (Hu: K15343K-2), which was performed according to manufacturer's instructions.
Cell culture. MPM cell lines were cultured in RPMI-1640 (Thermo Fisher Scientific) supplemented with 10% FBS (Gemini Bio-products). H226, H28, MSTO-211H, H2452 and H2052 were purchased from ATCC. MS428 was provided by the Richards Lab. H2461 and H2591 were provided to Dr. Janne by the NIH (Pass et al., Ann. Thorac. Surg. 59:835-44 (1995)). JMN1B (Demetri et al., Blood 74:940-6 (1989)) and MS589 (Gordon et al., Am. J. Pathol. 166:1827-40 (2005)) were derived at BWH/DFCI and shared internally with permission. All experiments were performed before reaching 10 passages. Mycoplasma infection was regularly checked by PCR using the conditioned media derived from each cell line with primers as previously described (Kitajima et al., Cancer Discov. 9:34-45 (2019)).
Immunoblotting. Cells were lysed in RIPA buffer containing 1× protease inhibitors (Roche 11-836-145-001) and phosphatase inhibitors (50 mmol/L NaF and 100 mmol/L Na3VO4). […]
On the technique in general: ELISA stands for enzyme-linked immunosorbent assay.

Another experiment concerns granzyme B. Description: Granzyme B ELISA, NK / MPM co-culture. The settings on record: only in co-culture with MPM cells expressing STING. The protocol:
as §1

The test system of the next experiment is MPM cell lines. In words: NK cell killing assay. The settings on record: NK co-culture, only with MPM cells expressing STING. The protocol:
NK cell killing assay. Target cells (MPM cell lines) were detached via trypsinization, labelled with CellTrace Violet (CTV, LifeTechnologies) and then seeded in a 96-well plate at a cell density of 25,000 cells per well. […] After 6 hours of co-culture, the cells were harvested and incubated with an antibody for the apoptosis marker Annexin V (PE) and the live/dead stain 7-AAD (Biolegend). Cells were analyzed on a BD LSRFortessa with FACSDiva software (BD Biosciences). Data were analyzed using FlowJo software version 10.5.3. The apoptotic cells were evaluated by gating on the CTV+ population and represented as percentage live or dead (late apoptotic) cells. Apoptotic cell analysis was conducted using NK cells extracted from as many as 4 different healthy donors per target MPM cell line to incorporate baseline donor variability.

A further experiment concerns MPM tumor cell lines. Description: 3D vascular model of NK cell migration. As to conditions: presence and absence of the vascular barrier. The protocol: 3D vascular model. To generate the tumor-vascular model, H226 spheroids were mixed with collagen rat tail hydrogel (2.5 mg/ml) and injected into the center gel region of the 3D microfluidic chamber (10-15 μL per each microfluidic chamber). After incubation for 30 minutes at 37° C. in sterile humidity chambers, the side wall of one flanked channel (media channel) was coated with a 150 μg/ml collagen solution in PBS to allow for better adhesion of eCs to the channel. After 15 mins, the channel was washed once with media. To create the 3D vessel, 25 μL cell suspension of 3×10^6 cells/ml human umbilical vein endothelial cells (HUVECs; C2519AS, Lonza) were injected in the media channel coated with collagen. The channel was rotated twice to create a confluent hollow-lumen 3D vessel. To allow the cells to attach to the media-gel interface and form a monolayer, the chip was incubated with cells face down for 15 mins. Next, 50 μL cell suspension was reinjected, and the chip was flipped to cover the upper part of the 3D vascular channel. After 90 mins of incubation in the humidity chamber at 37° C., cell culture media was gently added to both channels and further incubated to form a confluent monolayer. After vessel formation, NK cells (labelled with cell tracker) were added to the 3D vessel at 2:1 E:T ratio. […] NK cell migration+/−vessel was quantified at 24 hours. Image capture and analysis was performed using a fluorescence confocal microscope and processing software. The 3D vascular channels were rinsed in PBS and fixed with 4% PFA for 15 min at room temperature. Cell membranes were permeabilized with 0.1% Triton X-100 for 5 min at room temperature and washed twice with PBS. HUVEC cells were stained for F-actin with green phalloidin (Thermo Fisher Scientific A12379) and Hoechst 33342. Images were captured on a Nikon Eclipse 80i fluorescence microscope equipped with Z-stack (Prior) and CoolSNAP CCD camera (Roper Scientific).

The structures appear in SMILES notation.

Regarding `Nc1ncnc2c1ncn2[C@@H]1O[C@@H]2COP(=O)([S-])O[C@@H]3[C@H](O)[C@@H](COP([O-])(=S)O[C@H]2[C@H]1O)O[C@H]3n1cnc2c(N)ncnc21.[Na+].[Na+]` (stereo partly shown) [ADU-S100], in the experiment on STING, the “STING pathway activation, CXCL10 secretion” value is reported as “potent pathway activation”. For the same compound, the “granzyme release by NK cells” value in the experiment with granzyme B is on record as “enhanced”. In the experiment on MPM cell lines, the “apoptosis of tumor cells” value is on record as “enhanced”. In addition, in the experiment with MPM tumor cell lines, the NK cell migration result is given as “enhanced NK cell migration”.

(Values after US20260183396A1, “CXCR3 OVEREXPRESSION IN CAR-NK CELLS PRIMES MIGRATION/HOMING INTO THE TUMOR MICROENVIRONMENT” (DANA-FARBER CANCER INSTITUTE, INC., priority 2022, published 2026).)
